{"source": "ChEMBL document CHEMBL5500335", "about": "“Ligand-based design and synthesis of new trityl histamine and trityl cysteamine derivatives as SIRT2 inhibitors for cancer therapy” (Eur J Med Chem, 2024)", "key": {"[1]": {"target": "T1, NAD-dependent protein deacetylase sirtuin-2 (Homo sapiens, UniProt Q8IXJ6)", "T1 sequence (Q8IXJ6 whole entry)": "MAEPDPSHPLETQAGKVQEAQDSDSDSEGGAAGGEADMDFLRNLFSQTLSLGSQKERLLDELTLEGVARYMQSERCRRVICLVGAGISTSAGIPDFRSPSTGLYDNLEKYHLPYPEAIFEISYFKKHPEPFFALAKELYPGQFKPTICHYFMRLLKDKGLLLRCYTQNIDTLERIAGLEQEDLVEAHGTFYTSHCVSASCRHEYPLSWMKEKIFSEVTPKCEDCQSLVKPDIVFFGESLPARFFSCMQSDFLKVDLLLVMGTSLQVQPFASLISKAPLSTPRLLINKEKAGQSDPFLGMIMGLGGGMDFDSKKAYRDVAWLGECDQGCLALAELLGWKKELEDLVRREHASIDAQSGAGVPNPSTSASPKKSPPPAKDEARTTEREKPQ", "assay": "Inhibition of recombinant SIRT2 (unknown origin) deacetylase activity using Ac-RHKK(Ac)-MCA as substrate incubated for 60 mins in presence of NAD by fluorogenic assay"}, "[2]": {"system": "Panel NCI-60 (60 carcinoma cell lines)", "assay": "Growth inhibition of human Panel NCI-60 (60 carcinoma cell lines) cells incubated for 48 hrs by SRB assay", "type": "functional"}, "[3]": {"system": "Panel NCI-60 (60 carcinoma cell lines)", "assay": "Antiproliferative activity against human Panel NCI-60 (60 carcinoma cell lines) cells assessed as inhibition of cell growth incubated for 48 hrs by SRB assay", "type": "functional"}, "[4]": {"system": "Panel NCI-60 (60 carcinoma cell lines)", "assay": "Antiproliferative activity against human Panel NCI-60 (60 carcinoma cell lines) cells assessed as decrease in cell count incubated for 48 hrs by SRB assay", "type": "functional"}, "[5]": {"target": "T2, NAD-dependent protein deacetylase sirtuin-2 (Homo sapiens) (UniProt Q8IXJ6)", "T2 sequence (whole entry)": "T1 sequence (Q8IXJ6 whole entry)", "assay": "Inhibition of SIRT2 in human MCF7 cells assessed as induction of eIF5A acetylation incubated for 24 hrs by immunoblotting analysis", "type": "cell-based", "conditions": "dose 2-10 µM"}, "MCF7 [6]": {"system": "MCF7", "assay": "Cell cycle arrest in human MCF7 cells assessed as G0-G1 phase cells incubated for 24 hrs by flow cytometric analysis (reference value: 55.8 %)", "type": "functional"}, "MCF7 [7]": {"system": "MCF7", "assay": "Cell cycle arrest in human MCF7 cells assessed as accumulation of S phase cells incubated for 24 hrs by flow cytometric analysis (reference value: 26.6 %)", "type": "functional"}, "MCF7 [8]": {"system": "MCF7", "assay": "Cell cycle arrest in human MCF7 cells assessed as accumulation of G2/M phase cells incubated for 24 hrs by flow cytometric analysis (reference value: 18 %)", "type": "functional"}, "[9]": {"assay": "Cytotoxicity against human PBMC cells assessed as cell viability at 10 uM incubated for 2 days by MTT assay relative to control", "type": "toxicity, cell-based", "conditions": "time 2 day, read-out: Activity"}, "[10]": {"assay": "Cytotoxicity against human PBMC cells assessed as cell viability at 1 uM incubated for 2 days by MTT assay relative to control", "type": "toxicity, cell-based", "conditions": "time 2 day, read-out: Activity"}, "[11]": {"assay": "Cytotoxicity against human PBMC cells assessed as cell viability incubated for 2 days by MTT assay", "type": "toxicity, cell-based"}, "[12]": {"assay": "Selectivity ratio of IC50 for antiproliferative activity against spontaneous remission leukemia cell line (unknown origin) to IC50 for cytotoxicity against human PBMC cells", "type": "toxicity, cell-based", "conditions": "read-out: Ratio IC50"}, "[13]": {"assay": "Selectivity ratio of IC50 for antiproliferative activity against human MOLT-4 cells to IC50 for cytotoxicity against human PBMC cells", "type": "toxicity, cell-based", "conditions": "MOLT-4 cells and PBMC cells, read-out: Ratio IC50"}, "DNA": {"system": "DNA", "assay": "Induction of DNA (unknown origin) cleavage", "type": "nucleic-acid assay"}}, "note": "Active and inactive are the calls of the source. No cut-off for these calls is given here.", "data": [{"compound": "CCN(CC)c1ccnc(CNCCSC(c2ccccc2)(c2ccccc2)c2ccc(C)cc2)c1", "values": [{"measurement": "IC50", "setting": "[1]", "value": 27300, "unit": "nM"}, {"measurement": "GI50", "setting": "[2]", "value": 1380, "unit": "nM"}, {"measurement": "TGI", "setting": "[3]", "value": 2850, "unit": "nM"}, {"measurement": "LC50 (50% net cell kill)", "setting": "[4]", "value": "≥ 5590", "unit": "nM"}]}, {"compound": "CN(C)c1ccnc(CNCCSC2(c3ccccc3)c3ccccc3CCc3ccccc32)c1", "values": [{"measurement": "IC50", "setting": "[1]", "value": 10600, "unit": "nM"}, {"measurement": "GI50", "setting": "[2]", "value": 1510, "unit": "nM"}, {"measurement": "TGI", "setting": "[3]", "value": "≥ 2930", "unit": "nM"}]}, {"compound": "CCN(CC)c1ccnc(CNC(Cc2cn(C(c3ccccc3)(c3ccccc3)c3ccccc3)cn2)C(=O)OC)c1", "note": "(centres undefined)", "values": [{"measurement": "IC50", "setting": "[1]", "value": 7610, "unit": "nM"}]}, {"compound": "CN(C)c1ccnc(CNCCSC2(c3ccc(C(F)(F)F)cc3)c3ccccc3CCc3ccccc32)c1", "values": [{"measurement": "IC50", "setting": "[1]", "value": 49600, "unit": "nM"}, {"measurement": "GI50", "setting": "[2]", "value": 180, "unit": "nM"}, {"measurement": "TGI", "setting": "[3]", "value": 370, "unit": "nM"}, {"measurement": "LC50 (50% net cell kill)", "setting": "[4]", "value": "≥ 4770", "unit": "nM"}]}, {"compound": "CN(C)c1ccnc(CNCCCSC(c2ccccc2)(c2ccccc2)c2ccccc2)c1", "values": [{"measurement": "IC50", "setting": "[1]", "value": 26100, "unit": "nM"}, {"measurement": "GI50", "setting": "[2]", "value": 1550, "unit": "nM"}, {"measurement": "TGI", "setting": "[3]", "value": 3190, "unit": "nM"}]}, {"compound": "COc1ccc(C2(SCCNCc3cc(N(C)C)ccn3)c3ccccc3CCc3ccccc32)cc1", "values": [{"measurement": "IC50", "setting": "[1]", "value": 8630, "unit": "nM"}, {"measurement": "GI50", "setting": "[2]", "value": 190, "unit": "nM"}, {"measurement": "TGI", "setting": "[3]", "value": 440, "unit": "nM"}]}, {"compound": "CCN(CC)c1ccnc(CNCCc2cn(C(c3ccccc3)(c3ccccc3)c3ccccc3)cn2)c1", "values": [{"measurement": "IC50", "setting": "[1]", "value": 15400, "unit": "nM"}, {"measurement": "GI50", "setting": "[2]", "value": 1030, "unit": "nM"}, {"measurement": "TGI", "setting": "[3]", "value": "≥ 3200", "unit": "nM"}]}, {"compound": "CCN(CC)c1ccnc(CNCCSC(c2ccccc2)(c2ccccc2)c2ccc(OC)cc2)c1", "values": [{"measurement": "IC50", "setting": "[1]", "value": 14200, "unit": "nM"}, {"measurement": "GI50", "setting": "[2]", "value": 1300, "unit": "nM"}, {"measurement": "TGI", "setting": "[3]", "value": 3060, "unit": "nM"}, {"measurement": "LC50 (50% net cell kill)", "setting": "[4]", "value": "≥ 5590", "unit": "nM"}]}, {"compound": "COc1ccc(C2(SCCNCc3cc(N(C)C)ccn3)c3ccccc3C=Cc3ccccc32)cc1", "values": [{"measurement": "IC50", "setting": "[1]", "value": 5630, "unit": "nM"}, {"measurement": "inhibition", "setting": "[5]", "value": "Dose-Dependent Effect"}, {"measurement": "GI50", "setting": "[2]", "value": 40, "unit": "nM"}, {"measurement": "TGI", "setting": "[3]", "value": "≥ 70", "unit": "nM"}, {"measurement": "LC50 (50% net cell kill)", "setting": "[4]", "value": "≥ 720", "unit": "nM"}, {"measurement": "Activity", "setting": "MCF7 [6]", "value": 26.7, "unit": "%"}, {"measurement": "Activity", "setting": "MCF7 [7]", "value": 29.4, "unit": "%"}, {"measurement": "Activity", "setting": "MCF7 [8]", "value": 46.5, "unit": "%"}, {"measurement": "viability at 48 h, 10 µM", "setting": "[9]", "value": 16.2, "unit": "%"}, {"measurement": "viability at 48 h, 1 µM", "setting": "[10]", "value": 84.9, "unit": "%"}, {"measurement": "IC50 at 2 days", "setting": "[11]", "value": "> 1000", "unit": "nM"}, {"measurement": "selectivity ratio", "setting": "[12]", "value": 25}, {"measurement": "selectivity ratio", "setting": "[13]", "value": 2.2}, {"measurement": "Activity", "setting": "DNA", "value": "inactive"}]}, {"compound": "CN(C)c1ccnc(CNCCSC2(c3ccc(C(F)(F)F)cc3)c3ccccc3C=Cc3ccccc32)c1", "values": [{"measurement": "IC50", "setting": "[1]", "value": "> 50000", "unit": "nM"}, {"measurement": "GI50", "setting": "[2]", "value": 610, "unit": "nM"}, {"measurement": "TGI", "setting": "[3]", "value": 4390, "unit": "nM"}, {"measurement": "LC50 (50% net cell kill)", "setting": "[4]", "value": "≥ 10000", "unit": "nM"}]}, {"compound": "CN(C)c1ccnc(CNCCSC2c3ccccc3C=Cc3ccccc32)c1", "values": [{"measurement": "IC50", "setting": "[1]", "value": "> 50000", "unit": "nM"}]}, {"compound": "CN(C)c1ccnc(CNCCc2cn(C(c3ccccc3)(c3ccccc3)c3ccccc3)cn2)c1", "values": [{"measurement": "IC50", "setting": "[1]", "value": 8620, "unit": "nM"}, {"measurement": "GI50", "setting": "[2]", "value": 260, "unit": "nM"}, {"measurement": "TGI", "setting": "[3]", "value": 1190, "unit": "nM"}]}, {"compound": "COc1ccc(C(SCCNCc2cc(N(C)C)ccn2)(c2ccccc2)c2ccccc2)cc1", "values": [{"measurement": "IC50", "setting": "[1]", "value": 12400, "unit": "nM"}, {"measurement": "GI50", "setting": "[2]", "value": 210, "unit": "nM"}, {"measurement": "TGI", "setting": "[3]", "value": "≥ 480", "unit": "nM"}, {"measurement": "LC50 (50% net cell kill)", "setting": "[4]", "value": "≥ 1820", "unit": "nM"}]}, {"compound": "CN(C)c1ccnc(CNCCSC2(c3ccccc3)c3ccccc3C=Cc3ccccc32)c1", "values": [{"measurement": "IC50", "setting": "[1]", "value": 12000, "unit": "nM"}, {"measurement": "GI50", "setting": "[2]", "value": 220, "unit": "nM"}, {"measurement": "TGI", "setting": "[3]", "value": "≥ 500", "unit": "nM"}, {"measurement": "LC50 (50% net cell kill)", "setting": "[4]", "value": "≥ 2170", "unit": "nM"}]}, {"compound": "Cc1ccc(C(SCCNCc2cc(N(C)C)ccn2)(c2ccccc2)c2ccccc2)cc1", "values": [{"measurement": "IC50", "setting": "[1]", "value": 9910, "unit": "nM"}, {"measurement": "GI50", "setting": "[2]", "value": 370, "unit": "nM"}, {"measurement": "TGI", "setting": "[3]", "value": 1570, "unit": "nM"}, {"measurement": "LC50 (50% net cell kill)", "setting": "[4]", "value": "≥ 4650", "unit": "nM"}]}]}
